What was measured:
[1] = tested on: Eschericia coli (E. coli) strain ATCC25922; assay: standard microdilution assay to determine minimum inhibitory concentrations (MICs), E. coli; format: cell-based; conditions: Escherichia coli
Method: (§1) The in vitro activity of the compounds of the present disclosure can be determined. Antimicrobial testing is typically performed to determine the minimum inhibitory concentration (MIC). Minimum inhibitory concentrations (MICs) are determined by the microdilution method in a final volume of 100 μl according to protocols outlined by The Clinical and Laboratory Standards Institute (CLSI). Performance standards for reference strains are assessed within the same experimental design to maintain quality control. See, for example, Clinical Laboratory Standards Institute: Methods for dilution antimicrobial susceptibility tests for bacteria that grow aerobically M7-A8. Approved Standard-Eighth Edition. Wayne, PA: CLSI; December 2008: and Clinical Laboratory Standards Institute: Performance Standards for Antimicrobial Susceptibility Testing M100-S20; Approved Standard-Twentieth Edition. Wayne, PA: CLSI; June 2010. The compounds of the present disclosure were tested for antimicrobial activity. The Compounds 1-122 were run against Eschericia coli (E. coli) strain ATCC25922 and against Staphylococcus aureus (S. aureus) 11540 strain using a standard microdilution assay to determine minimum inhibitory concentrations (MICs). […] It will be recognized by one skilled in the art that the compounds can be assessed against other bacterial organisms and that the presentation of data for activity against Eschericia coli and Staphylococcus aureus are illustrative and in no way is intended to limit the scope of the present disclosure. The compounds of the present disclosure can be assayed against a range of other microorganisms depending upon the performance activity desired to be gathered. Furthermore, the “+” and “−” representation and the selection of a cutoff value of 16 micrograms/mL is also illustrative and in no way is intended to limit the scope of the present disclosure.

[2] = tested on: Staphylococcus aureus (S. aureus) 11540 strain; assay: standard microdilution assay to determine minimum inhibitory concentrations (MICs), S. aureus; format: cell-based
Method: as §1

| SMILES | MIC [1] | MIC [2] |
| --- | --- | --- |
| N=C(N)SCC[C@@H]1CCC[C@@H](c2ccc(-n3cc4cc(C5C[C@@H](N)CN5)[nH]c4nc3=O)cc2)N1 (stereo partly shown) [Compound 88] | ≤ 16 µg/mL | ≤ 16 µg/mL |
| C=CCSC(=N)NCC[C@@H]1CCC[C@@H](c2ccc(-n3cc4cc(-c5cc(CCC[C@H](C)N)cc(Cl)c5F)[nH]c4nc3=O)cc2)N1 [Compound 122] | ≤ 16 µg/mL | ≤ 16 µg/mL |
| N=C(N)SCC[C@@H]1CCC[C@@H](c2ccc(-n3cc4cc(-c5cc(CCC[C@@H](N)CO)cc(Cl)c5F)[nH]c4nc3=O)cc2)N1 [Compound 8] | ≤ 16 µg/mL | ≤ 16 µg/mL |
| C[C@@H](N)CCCN1C[C@H](OCc2ccccc2)CC1c1cc2cn(-c3ccc([C@@H]4CCC[C@@H](CCSC(=N)N)N4)cc3)c(=O)nc2[nH]1 (stereo partly shown) [Compound 63] | ≤ 16 µg/mL | ≤ 16 µg/mL |
| C[C@H](N)CCCN1CCC=C(c2cc3cn(-c4ccc([C@@H]5CCC[C@@H](CCSC(=N)N)N5)cc4)c(=O)nc3[nH]2)C1 [Compound 73] | ≤ 16 µg/mL | ≤ 16 µg/mL |
| C[C@H](N)CCCc1cc(Cl)c(F)c(-c2cc3cn(-c4ccc([C@@H]5CCC[C@@H](CCSC(=N)N)N5CCC5CC5)cc4)c(=O)nc3[nH]2)c1 [Compound 103] | ≤ 16 µg/mL | ≤ 16 µg/mL |
| N=C(N)SCC[C@@H]1CCC[C@@H](c2ccc(-n3cc4cc(C5C[C@H]6CCCC[C@@H]6N5)[nH]c4nc3=O)cc2)N1 (stereo partly shown) [Compound 51] | ≤ 16 µg/mL | ≤ 16 µg/mL |
| CSC(=N)NCC[C@@H]1CCC[C@@H](c2ccc(-n3cc4cc(-c5cc(CCC[C@H](C)N)cc(Cl)c5F)[nH]c4nc3=O)cc2F)N1 [Compound 121] | ≤ 16 µg/mL | ≤ 16 µg/mL |
| CCc1cc(CCC[C@H](C)N)cc(-c2cc3cn(-c4ccc([C@@H]5CCC[C@@H](CCSC(=N)N)N5)cc4)c(=O)nc3[nH]2)c1Cl [Compound 82] | ≤ 16 µg/mL | ≤ 16 µg/mL |
| C[C@H](N)CCCc1cc(Cl)c(F)c(-c2cc3cn(-c4ccc([C@@H]5CCC=C[C@@H](CCSC(=N)N)N5)cc4)c(=O)nc3[nH]2)c1 [Compound 59] | ≤ 16 µg/mL | ≤ 16 µg/mL |
| C[C@H](N)CCCc1cc(-c2cc3cn(-c4ccc([C@@H]5CCC[C@@H](CCSC(=N)N)N5)cc4)c(=O)nc3[nH]2)cc(C2CCCC2)c1 [Compound 100] | ≤ 16 µg/mL | ≤ 16 µg/mL |
| C[C@H](N)CCCc1cc(Cl)c(F)c(-c2cc3cn(-c4ccc([C@@H]5CCC[C@@H](CCSC(=N)N)N5CCCO)cc4)c(=O)nc3[nH]2)c1 [Compound 6] | ≤ 16 µg/mL | ≤ 16 µg/mL |
| C[C@@H](N)CCCN1C[C@H](CO)CC1c1cc2cn(-c3ccc([C@@H]4CCC[C@@H](CCSC(=N)N)N4)cc3)c(=O)nc2[nH]1 (stereo partly shown) [Compound 81] | ≤ 16 µg/mL | ≤ 16 µg/mL |
| C[C@H](N)CCCc1cc(Cl)c(F)c(-c2cc3cn(-c4ccc([C@H]5C[C@H](CCSC(=N)N)CN5)cc4)c(=O)nc3[nH]2)c1 [Compound 114] | ≤ 16 µg/mL | ≤ 16 µg/mL |
| C[C@@H](N)CCCN1C[C@H](F)CC1c1cc2cn(-c3ccc([C@@H]4CCC[C@@H](CCSC(=N)N)N4)cc3)c(=O)nc2[nH]1 (stereo partly shown) [Compound 69] | ≤ 16 µg/mL | ≤ 16 µg/mL |
| N=C(N)SCCCN1CCCC[C@H]1c1ccc(-n2cc3cc(-c4cc(CCC[C@@H](N)C5CC5)cc(Cl)c4F)[nH]c3nc2=O)cc1 [Compound 13] | ≤ 16 µg/mL | ≤ 16 µg/mL |
| C[C@H](N)CCCc1cc(Cl)c(F)c(-c2cc3cn(-c4ccc([C@@H]5C[C@@H](CCSC(=N)N)CN5)cc4)c(=O)nc3[nH]2)c1 [Compound 116] | ≤ 16 µg/mL | ≤ 16 µg/mL |
| C[C@H](N)CCCc1cc(Cl)c(F)c(-c2cc3cn(-c4ccc([C@H](C)NCC[C@H](C)SC(=N)N)cc4)c(=O)nc3[nH]2)c1 [Compound 26] | ≤ 16 µg/mL | ≤ 16 µg/mL |

| SMILES | MIC [1] | MIC [2] |
| --- | --- | --- |
| CCc1cc(CCC[C@H](C)N)cc(-c2cc3cn(-c4ccc([C@@H]5CCC[C@@H](CCSC(=N)N)N5)cc4)c(=O)nc3[nH]2)c1F [Compound 85] | ≤ 16 µg/mL | ≤ 16 µg/mL |
| C[C@H](N)CCCc1cc(-c2cc3cn(-c4ccc([C@@H]5CCC[C@@H](CCSC(=N)N)N5)cc4)c(=O)nc3[nH]2)cc2c1CCCC2 [Compound 93] | ≤ 16 µg/mL | ≤ 16 µg/mL |
| C[C@@H](N)CCCN1CC(C)(C)CC1c1cc2cn(-c3ccc([C@@H]4CCC[C@@H](CCSC(=N)N)N4)cc3)c(=O)nc2[nH]1 (stereo partly shown) [Compound 74] | ≤ 16 µg/mL | ≤ 16 µg/mL |
| C[C@H](N)CCCc1cc(-c2cc3cn(-c4ccc([C@@H]5CCC[C@@H](CCSC(=N)N)N5)cc4)c(=O)nc3[nH]2)cc(C(C)(F)F)c1 [Compound 89] | ≤ 16 µg/mL | ≤ 16 µg/mL |
| C[C@@H](N)CCCN1CC(F)(F)CC1c1cc2cn(-c3ccc([C@@H]4CCC[C@@H](CCSC(=N)N)N4)cc3)c(=O)nc2[nH]1 (stereo partly shown) [Compound 71] | ≤ 16 µg/mL | ≤ 16 µg/mL |
| C[C@H](CO)CN1[C@H](CCSC(=N)N)CCC[C@H]1c1ccc(-n2cc3cc(-c4cc(CCC[C@H](C)N)cc(Cl)c4F)[nH]c3nc2=O)cc1 [Compound 105] | ≤ 16 µg/mL | ≤ 16 µg/mL |
| CC(C)c1cc(CCC[C@H](C)N)cc(-c2cc3cn(-c4ccc([C@@H]5CCC[C@@H](CCSC(=N)N)N5)cc4)c(=O)nc3[nH]2)c1F [Compound 84] | ≤ 16 µg/mL | ≤ 16 µg/mL |
| C[C@H](N)CCCN1CCCC1c1cc2cn(-c3ccc([C@@H]4CCC[C@@H](CCSC(=N)N)N4)cc3)c(=O)nc2[nH]1 (stereo partly shown) [Compound 31] | ≤ 16 µg/mL | ≤ 16 µg/mL |
| CC(C)SC(=N)NCC[C@@H]1CCC[C@@H](c2ccc(-n3cc4cc(-c5cc(CCC[C@H](C)N)cc(Cl)c5F)[nH]c4nc3=O)cc2)N1 [Compound 119] | ≤ 16 µg/mL | ≤ 16 µg/mL |
| C[C@H](N)CCCc1cc(Cl)c(F)c(-c2cc3cn(-c4ccc([C@H](C)NCCCSC(=N)N)cc4)c(=O)nc3[nH]2)c1 [Compound 9] | ≤ 16 µg/mL | ≤ 16 µg/mL |
| C[C@H](N)CCCN1C(c2cc3cn(-c4ccc([C@@H]5CCC[C@@H](CCSC(=N)N)N5)cc4)c(=O)nc3[nH]2)C[C@H]2CCCC[C@@H]21 (stereo partly shown) [Compound 53] | ≤ 16 µg/mL | ≤ 16 µg/mL |
| COC[C@H](N)CCCc1cc(Cl)c(F)c(-c2cc3cn(-c4ccc([C@@H]5CCC[C@@H](CCSC(=N)N)N5)cc4)c(=O)nc3[nH]2)c1 [Compound 80] | ≤ 16 µg/mL | ≤ 16 µg/mL |
| C[C@H](N)CCc1cc(Cl)c(F)c(-c2cc3cn(-c4ccc([C@@H]5CCC[C@@H](CCSC(=N)N)N5)cc4)c(=O)nc3[nH]2)c1 [Compound 37] | ≤ 16 µg/mL | ≤ 16 µg/mL |
| C[C@H](N)CCCc1cc(Cl)c(F)c(-c2cc3cn(-c4ccc([C@@H]5CCC[C@@H](CCSC(=N)N)N5CCF)cc4)c(=O)nc3[nH]2)c1 [Compound 98] | ≤ 16 µg/mL | ≤ 16 µg/mL |
| C[C@H](N)CCCc1cc(Cl)c(F)c(-c2cc3cn(-c4ccc([C@@H]5CCC[C@@H](CCSC(=N)N(C)C)N5)cc4)c(=O)nc3[nH]2)c1 [Compound 44] | ≤ 16 µg/mL | ≤ 16 µg/mL |
| C/N=C(\NC)SCC[C@@H]1CCC[C@@H](c2ccc(-n3cc4cc(-c5cc(CCC[C@H](C)N)cc(Cl)c5F)[nH]c4nc3=O)cc2)N1 [Compound 43] | ≤ 16 µg/mL | ≤ 16 µg/mL |
| COCCN1[C@H](CCSC(=N)N)CCC[C@H]1c1ccc(-n2cc3cc(-c4cc(CCC[C@H](C)N)cc(Cl)c4F)[nH]c3nc2=O)cc1 [Compound 97] | > 16 µg/mL | ≤ 16 µg/mL |

From patent US12234238B2, “Antimicrobial compounds and methods of making and using the same” (BIOVERSYS AG, priority 2017, dated 2025)
